Measured values taken from ChEMBL document CHEMBL3124779, “Discovery of ABT-267, a pan-genotypic inhibitor of HCV NS5A” (J Med Chem, 2014).
Values after ≈ are worked out from the molar mass of the structure shown.

Experiments:
Hepatitis C virus [1] = test: Antiviral activity against HCV genotype 1 infected in human assessed as cure rate; type: functional, Hepacivirus hominis
[2] = Metabolic stability in rat liver microsomes assessed as compound remaining after 30 mins; type: ADME; conditions: read-out: Stability
[3] = Volume of distribution at steady state in monkey at 1 mg/kg, iv; type: ADME, organism-based, Macaca mulatta; design: dose 1 mg/kg, route intravenous; conditions: rhesus monkey, in vivo, read-out: Vdss
[4] = Half life in monkey at 2.5 mg/kg, po; type: ADME, organism-based, Macaca mulatta; design: dose 2.5 mg/kg, route oral; conditions: rhesus monkey, in vivo
[5] = Oral bioavailability in monkey at 2.5 mg/kg; type: ADME, organism-based, Macaca mulatta; conditions: rhesus monkey, in vivo
[6] = Kinetic solubility of the compound in 10 mM of phosphate buffer at pH 7.2 by CLND method; type: physicochemical; conditions: read-out: Kinetic_solubility
Hepatitis C virus [7] = test: Antiviral activity against HCV1b Con1 infected in human HuH7 cells assessed as inhibition of viral replication after 4 days by luciferase reporter gene assay in presence of 40% human plasma; type: functional, organism-based, Hepacivirus hominis; conditions: isolate Con1, Huh-7, Plasma, 96 h
[8] = Cmax in rat at 3 mg/kg, po; type: ADME, organism-based; design: dose 3 mg/kg, route oral; conditions: in vivo
[9] = Half life in rat at 3 mg/kg, iv; type: ADME, organism-based; design: dose 3 mg/kg, route intravenous; conditions: in vivo
Hepatitis C virus [10] = test: Antiviral activity against HCV1a H77 infected in human HuH7 cells assessed as inhibition of viral replication after 4 days by luciferase reporter gene assay in presence of 40% human plasma; type: functional, organism-based, Hepacivirus hominis; conditions: genotype 1a H77, Huh-7, Plasma, 96 h
[11] = AUC in rat at 3 mg/kg, po; type: ADME, organism-based; design: dose 3 mg/kg, route oral; conditions: plasma
[12] = Clearance in rat at 3 mg/kg, iv; type: ADME, organism-based; design: dose 3 mg/kg, route intravenous; conditions: in vivo
[13] = Volume of distribution at steady state in dog at 1 mg/kg, iv; type: ADME, organism-based, Canis lupus familiaris; design: dose 1 mg/kg, route intravenous; conditions: in vivo, read-out: Vdss
[14] = AUC in monkey at 2.5 mg/kg, po; type: ADME, organism-based, Macaca mulatta; design: dose 2.5 mg/kg, route oral; conditions: rhesus monkey, plasma
Hepatitis C virus [15] = test: Antiviral activity against HCV1a H77 infected in human HuH7 cells assessed as inhibition of viral replication after 4 days by luciferase reporter gene assay; type: functional, organism-based, Hepacivirus hominis; conditions: genotype 1a H77, Huh-7, 96 h
[16] = Cmax in monkey at 2.5 mg/kg, po; type: ADME, organism-based, Macaca mulatta; design: dose 2.5 mg/kg, route oral; conditions: rhesus monkey, in vivo
[17] = Volume of distribution at steady state in rat at 3 mg/kg, iv; type: ADME, organism-based; design: dose 3 mg/kg, route intravenous; conditions: in vivo, read-out: Vdss
[18] = Cmax in dog at 2.5 mg/kg, po; type: ADME, organism-based, Canis lupus familiaris; design: dose 2.5 mg/kg, route oral; conditions: in vivo
[19] = Lipophilicity, log D of the compound at pH 7.4 by HPLC analysis; type: physicochemical; conditions: buffer
[20] = Clearance in monkey at 1 mg/kg, iv; type: ADME, organism-based, Macaca mulatta; design: dose 1 mg/kg, route intravenous; conditions: rhesus monkey, in vivo
[21] = AUC in dog at 2.5 mg/kg, po; type: ADME, organism-based, Canis lupus familiaris; design: dose 2.5 mg/kg, route oral; conditions: plasma
[22] = Tmax in rat at 3 mg/kg, po; type: ADME, organism-based; design: dose 3 mg/kg, route oral; conditions: in vivo
[23] = Tmax in monkey at 2.5 mg/kg, po; type: ADME, organism-based, Macaca mulatta; design: dose 2.5 mg/kg, route oral; conditions: rhesus monkey, in vivo
Hepatitis C virus [24] = test: Ratio of EC50 for HCV1b Con1 infected in human HuH7 cells in presence of 40% human plasma to EC50 for HCV1b Con1 infected in human HuH7 cells in absence of 40% human plasma; type: functional, Hepacivirus hominis, isolate Con1, Huh-7
[25] = Half life in dog at 1 mg/kg, iv; type: ADME, organism-based, Canis lupus familiaris; design: dose 1 mg/kg, route intravenous; conditions: in vivo
[26] = Clearance in dog at 1 mg/kg, iv; type: ADME, organism-based, Canis lupus familiaris; design: dose 1 mg/kg, route intravenous; conditions: in vivo
[27] = Metabolic stability in human liver microsomes assessed as compound remaining after 30 mins; type: ADME; conditions: read-out: Stability
Hepatitis C virus [28] = test: Antiviral activity against HCV1b Con1 infected in human HuH7 cells assessed as inhibition of viral replication after 4 days by luciferase reporter gene assay; type: functional, organism-based, Hepacivirus hominis; conditions: isolate Con1, Huh-7, 96 h
Hepatitis C virus [29] = test: Ratio of EC50 for HCV1a H77 infected in human HuH7 cells in presence of 40% human plasma to EC50 for HCV1a H77 infected in human HuH7 cells in absence of 40% human plasma; type: functional, Hepacivirus hominis, genotype 1a H77, Huh-7
[30] = Half life in rat at 3 mg/kg, po; type: ADME, organism-based; design: dose 3 mg/kg, route oral; conditions: in vivo
[31] = Half life in monkey at 1 mg/kg, iv; type: ADME, organism-based, Macaca mulatta; design: dose 1 mg/kg, route intravenous; conditions: rhesus monkey, in vivo
[32] = Half life in dog at 2.5 mg/kg, po; type: ADME, organism-based, Canis lupus familiaris; design: dose 2.5 mg/kg, route oral; conditions: in vivo
[33] = Tmax in dog at 2.5 mg/kg, po; type: ADME, organism-based, Canis lupus familiaris; design: dose 2.5 mg/kg, route oral; conditions: in vivo
[34] = Oral bioavailability in dog at 2.5 mg/kg; type: ADME, organism-based, Canis lupus familiaris; conditions: in vivo
[35] = Oral bioavailability in rat at 3 mg/kg; type: ADME, organism-based; conditions: in vivo

remaining at 0.5 h [2] [%] | Vd [3] [L/kg] | half-life [4] [h] | bioavailability [5] [%] | solubility kinetic [6] [µM] | EC50 (Hepatitis C virus [7]) [nM] | Cmax [8] [ng/mL] | half-life [9] [h] | EC50 (Hepatitis C virus [10]) [nM] | AUC [11] [ng·h/mL] | clearance [12] [mL/min/kg] | Vd [13] [L/kg] | AUC [14] [ng·h/mL] | EC50 (Hepatitis C virus [15]) [nM] | Cmax [16] [ng/mL] | Vd [17] [L/kg] | Cmax [18] [ng/mL] | logD [19] | clearance [20] [mL/min/kg] | Structure (SMILES) | Activity (Hepatitis C virus [1]) | further results
 |  |  |  |  |  |  |  |  |  |  |  |  |  |  |  |  |  |  | CCC[C@H](NC(=O)[C@@H]1[C@H]2CCC[C@H]2CN1C(=O)[C@@H](NC(=O)[C@@H](NC(=O)c1cnccn1)C1CCCCC1)C(C)(C)C)C(=O)C(=O)NC1CC1 | <=75% | 
69 | 4.1 | 5.4 | 18 | 3.9 (≈ 3.45 µg/mL) | 0.162 | 960 | 7.5 | 20.8 | 10200 | 1.67 | 1.6 | 490 | 1.18 | 120 | 1 | 1070 | 5.2 | 15.5 | COC(=O)N[C@H](C(=O)N1CCC[C@H]1C(=O)Nc1ccc([C@H]2CC[C@H](c3ccc(NC(=O)[C@@H]4CCCN4C(=O)[C@@H](NC(=O)OC)C(C)(C)C)cc3)N2c2ccc(F)cc2)cc1)C(C)(C)C |  | AUC [21]: 18300 ng·h/mL; Tmax [22]: 2.3 h; Tmax [23]: 1.7 h; Ratio EC50 (Hepatitis C virus [24]): 20; half-life [25]: 9.1 h; clearance [26]: 2.17 mL/min/kg; remaining at 0.5 h [27]: 54%; EC50 (Hepatitis C virus [28]): 0.008 nM; Ratio EC50 (Hepatitis C virus [29]): 18; half-life [30]: 7 h; half-life [31]: 4.6 h; half-life [32]: 10.3 h; Tmax [33]: 2.7 h; bioavailability [34]: 94%; bioavailability [35]: 39%
38 | 1.5 | 0.6 | 10 | 6 (≈ 5.14 µg/mL) | 0.208 | 1380 | 3.3 | 11.1 | 6360 | 2.17 | 1.9 | 80 | 2.53 | 50 | 0.5 | 420 | 4.6 | 51.7 | COC(=O)N[C@H](C(=O)N1CCC[C@H]1C(=O)Nc1ccc([C@H]2CC[C@H](c3ccc(NC(=O)[C@@H]4CCCN4C(=O)[C@@H](NC(=O)OC)C(C)C)cc3)N2c2ccc(F)cc2)cc1)C(C)C |  | AUC [21]: 1280 ng·h/mL; Tmax [22]: 1.3 h; Tmax [23]: 1.5 h; Ratio EC50 (Hepatitis C virus [24]): 5; half-life [25]: 2 h; clearance [26]: 21.7 mL/min/kg; remaining at 0.5 h [27]: 38%; EC50 (Hepatitis C virus [28]): 0.042 nM; Ratio EC50 (Hepatitis C virus [29]): 4; half-life [30]: 2.8 h; half-life [31]: 0.8 h; half-life [32]: 2.2 h; Tmax [33]: 1.2 h; bioavailability [34]: 62%; bioavailability [35]: 22%
 |  |  |  |  |  |  |  |  |  |  |  |  |  |  |  |  |  |  | CC(C)(C)NC(=O)N[C@H](C(=O)N1C[C@H]2[C@@H]([C@H]1C(=O)NC(CC1CCC1)C(=O)C(N)=O)C2(C)C)C(C)(C)C (stereo not given in full) [BOCEPREVIR] | <=75% | 
